Experimental data taken from ChEMBL document CHEMBL4190187, “Discovery of pyrazolopyrimidine derivatives as novel inhibitors of ataxia telangiectasia and rad3 related protein (ATR)” (Bioorg Med Chem Lett, 2017).

Experiments:
[1] = target: PI3-kinase p110-delta/p85-alpha (Homo sapiens) (UniProt P27986+O00329); assay: Inhibition of recombinant full-length human p110d/p85a at 1 uM using phosphatidylinositol 4,5-bisphosphate as substrate after 40 mins in presence of [gamma-33P]ATP by scintillation counting method; type: protein-complex assay
[2] = target: Calcium/calmodulin-dependent protein kinase type II subunit gamma (Homo sapiens) (UniProt Q13555); assay: Inhibition of recombinant human CAMK2gamma (1 to 330 residues) at 1 uM using […] after 40 mins in presence of [gamma-33P]ATP by scintillation counting method
[3] = target: Protein kinase C beta type (Homo sapiens) (UniProt P05771); assay: Inhibition of recombinant human PKCbeta2 (2 to end residues) at 1 uM using histone H1 as substrate after 40 mins in presence of [gamma-33P]ATP by scintillation counting method
[4] = target: Tyrosine-protein kinase receptor UFO (Homo sapiens) (UniProt P30530); assay: Inhibition of recombinant human Axl (473 to end residues) at 1 uM using KKSRGDYMTMQIG as substrate after 40 mins in presence of [gamma-33P]ATP by scintillation counting method
Mus musculus = assay: Clearance in mouse at 2 mg/kg, iv or 10 mg/kg, po; type: ADME, organism-based; details: in vivo
[5] = target: Calcium/calmodulin-dependent protein kinase type IV (Homo sapiens) (UniProt Q16566); assay: Inhibition of recombinant full-length human CAMK4 at 1 uM using […] after 40 mins in presence of [gamma-33P]ATP by scintillation counting method
[6] = target: Myosin light chain kinase, smooth muscle (Homo sapiens) (UniProt Q15746); assay: Inhibition of recombinant human MLCK (1425 to 1771 residues) at 1 uM using […] after 40 mins in presence of [gamma-33P]ATP by scintillation counting method
[7] = target: Inhibitor of nuclear factor kappa-B kinase subunit beta (Homo sapiens) (UniProt O14920); assay: Inhibition of recombinant full-length human IKKbeta at 1 uM using peptide as substrate after 40 mins in presence of [gamma-33P]ATP by scintillation counting method
[8] = target: Serine/threonine-protein kinase ATR (Homo sapiens, UniProt Q13535); assay: Inhibition of human recombinant FLAG-tagged full length ATR expressed in mammalian cell line co-expressing human recombinant cMyc-tagged full length ATRIP at 1 uM using GST-cMyc-p53 as substrate after 40 mins in presence of [gamma-33P]ATP by scintillation counting method
[9] = target: Cytoplasmic tyrosine-protein kinase BMX (Homo sapiens) (UniProt P51813); assay: Inhibition of recombinant full-length human BMX at 1 uM using poly(Glu,Tyr) 4:1 as substrate after 40 mins in presence of [gamma-33P]ATP by scintillation counting method
[10] = target: Insulin receptor-related protein (Homo sapiens) (UniProt P14616); assay: Inhibition of recombinant human IRR (943 to 1266 residues) at 1 uM using myelin basic protein as substrate after 40 mins in presence of [gamma-33P]ATP by scintillation counting method
[11] = target: Receptor-interacting serine/threonine-protein kinase 1 (Homo sapiens) (UniProt Q13546); assay: Inhibition of recombinant human RIPK1 (8 to 322 residues) at 1 uM using myelin basic protein as substrate after 120 mins in presence of [gamma-33P]ATP by scintillation counting method
[12] = target: Protein kinase C eta type (Homo sapiens) (UniProt P24723); assay: Inhibition of recombinant human PKCeta (2 to end residues) at 1 uM using ERMRPRKRQGSVRRRV as substrate after 40 mins in presence of [gamma-33P]ATP by scintillation counting method
[13] = target: Wee1-like protein kinase (Homo sapiens) (UniProt P30291); assay: Inhibition of recombinant human Wee1 (214 to end residues) at 1 uM using LSNLYHQGKFLQTFCGSPLYRRR as substrate after 40 mins in presence of [gamma-33P]ATP by scintillation counting method
[14] = target: Tyrosine-protein kinase ABL1 (Homo sapiens) (UniProt P00519); assay: Inhibition of recombinant full-length human Abl at 1 uM using EAIYAAPFAKKK as substrate after 40 mins in presence of [gamma-33P]ATP by scintillation counting method
[15] = target: MAPK/MAK/MRK overlapping kinase (Homo sapiens) (UniProt Q9UQ07); assay: Inhibition of recombinant human MOK (1 to 343 residues) at 1 uM using RSRSRSRSRSRSRSR as substrate after 40 mins in presence of [gamma-33P]ATP by scintillation counting method
[16] = target: Tyrosine-protein kinase Yes (Homo sapiens) (UniProt P07947); assay: Inhibition of recombinant full-length human Yes at 1 uM using poly(Glu,Tyr) 4:1 as substrate after 40 mins in presence of [gamma-33P]ATP by scintillation counting method
[17] = target: Tau-tubulin kinase 2 (Homo sapiens) (UniProt Q6IQ55); assay: Inhibition of recombinant human TTBK2 (1 to 331 residues) at 1 uM using casein as substrate after 40 mins in presence of [gamma-33P]ATP by scintillation counting method
[18] = system: Tyrosine-protein kinase ABL1 (Homo sapiens), P00519 [Y253F]; assay: Inhibition of recombinant human Abl Y253F mutant (27 to end residues) at 1 uM using EAIYAAPFAKKK as substrate after 40 mins in presence of [gamma-33P]ATP by scintillation counting method
[19] = target: Cyclin-dependent kinase 2/cyclin E1 (Homo sapiens) (UniProt P24864+P24941); assay: Inhibition of recombinant full-length human CDK2/Cyclin E at 1 uM using histone H1 as substrate after 40 mins in presence of [gamma-33P]ATP by scintillation counting method; type: protein-complex assay
[20] = target: PI3K p110 alpha/p85 alpha (Mus musculus) (UniProt P26450+P42337); assay: Inhibition of recombinant full-length mouse p110a H1047R mutant/p85a at 1 uM using phosphatidylinositol 4,5-bisphosphate as substrate after 40 mins in presence of [gamma-33P]ATP by scintillation counting method; type: protein-complex assay
[21] = target: NUAK family SNF1-like kinase 2 (Homo sapiens) (UniProt Q9H093); assay: Inhibition of recombinant full-length human NUAK2 at 1 uM using KKKVSRSGLYRSPSMPENLNRPR as substrate after 40 mins in presence of [gamma-33P]ATP by scintillation counting method
[22] = target: Serine/threonine-protein kinase 17A (Homo sapiens) (UniProt Q9UEE5); assay: Inhibition of recombinant full-length human DRAK1 at 1 uM using KKLNRTLSFAEPG as substrate after 40 mins in presence of [gamma-33P]ATP by scintillation counting method
[23] = system: Ribosomal protein S6 kinase beta-1 (Homo sapiens), P23443 [T412E]; assay: Inhibition of recombinant human p70S6K T412E mutant (1 to 421 residues) at 1 uM using KKRNRTLTV as substrate after 40 mins in presence of [gamma-33P]ATP by scintillation counting method
Ribosomal protein S6 kinase beta-1 (Homo sapiens), P23443 [T412E], sequence (P23443 whole entry T412E, looked up, the tested form may be a part): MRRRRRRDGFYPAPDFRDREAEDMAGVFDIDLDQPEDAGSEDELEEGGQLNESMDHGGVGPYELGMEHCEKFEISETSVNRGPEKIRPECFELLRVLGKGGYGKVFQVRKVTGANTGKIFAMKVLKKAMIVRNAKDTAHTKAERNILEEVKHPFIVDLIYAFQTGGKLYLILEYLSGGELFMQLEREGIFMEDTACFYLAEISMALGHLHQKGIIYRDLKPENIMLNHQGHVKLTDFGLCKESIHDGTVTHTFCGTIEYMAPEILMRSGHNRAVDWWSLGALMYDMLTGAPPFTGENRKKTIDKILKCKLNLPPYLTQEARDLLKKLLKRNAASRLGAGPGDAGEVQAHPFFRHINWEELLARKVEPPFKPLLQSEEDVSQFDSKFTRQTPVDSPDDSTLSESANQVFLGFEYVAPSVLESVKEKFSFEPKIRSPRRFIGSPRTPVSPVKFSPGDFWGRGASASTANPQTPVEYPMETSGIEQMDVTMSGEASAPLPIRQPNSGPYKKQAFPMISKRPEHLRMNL

Receptor-interacting serine/threonine-protein kinase 1 (Homo sapiens), sequence (Q13546 whole entry, the tested form may be a part): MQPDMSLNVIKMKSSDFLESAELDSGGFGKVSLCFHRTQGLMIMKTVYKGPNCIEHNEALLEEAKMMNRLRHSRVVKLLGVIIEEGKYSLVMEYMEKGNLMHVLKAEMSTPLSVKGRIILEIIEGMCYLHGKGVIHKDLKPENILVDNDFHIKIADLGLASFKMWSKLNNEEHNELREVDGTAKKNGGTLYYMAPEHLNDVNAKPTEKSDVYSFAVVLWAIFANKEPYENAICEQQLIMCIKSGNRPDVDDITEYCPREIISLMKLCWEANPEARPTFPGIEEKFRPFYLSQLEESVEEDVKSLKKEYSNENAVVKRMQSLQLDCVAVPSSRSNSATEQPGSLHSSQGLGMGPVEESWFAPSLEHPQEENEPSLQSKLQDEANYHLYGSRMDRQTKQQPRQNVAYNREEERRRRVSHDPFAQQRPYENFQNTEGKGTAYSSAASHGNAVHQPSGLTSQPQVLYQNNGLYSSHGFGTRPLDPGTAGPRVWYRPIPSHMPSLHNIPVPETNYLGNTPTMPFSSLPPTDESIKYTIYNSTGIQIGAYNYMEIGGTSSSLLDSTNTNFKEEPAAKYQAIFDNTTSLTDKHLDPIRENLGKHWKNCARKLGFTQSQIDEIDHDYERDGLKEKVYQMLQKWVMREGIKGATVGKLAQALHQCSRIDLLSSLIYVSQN
Protein kinase C beta type (Homo sapiens), sequence (P05771 2-671 limits assumed): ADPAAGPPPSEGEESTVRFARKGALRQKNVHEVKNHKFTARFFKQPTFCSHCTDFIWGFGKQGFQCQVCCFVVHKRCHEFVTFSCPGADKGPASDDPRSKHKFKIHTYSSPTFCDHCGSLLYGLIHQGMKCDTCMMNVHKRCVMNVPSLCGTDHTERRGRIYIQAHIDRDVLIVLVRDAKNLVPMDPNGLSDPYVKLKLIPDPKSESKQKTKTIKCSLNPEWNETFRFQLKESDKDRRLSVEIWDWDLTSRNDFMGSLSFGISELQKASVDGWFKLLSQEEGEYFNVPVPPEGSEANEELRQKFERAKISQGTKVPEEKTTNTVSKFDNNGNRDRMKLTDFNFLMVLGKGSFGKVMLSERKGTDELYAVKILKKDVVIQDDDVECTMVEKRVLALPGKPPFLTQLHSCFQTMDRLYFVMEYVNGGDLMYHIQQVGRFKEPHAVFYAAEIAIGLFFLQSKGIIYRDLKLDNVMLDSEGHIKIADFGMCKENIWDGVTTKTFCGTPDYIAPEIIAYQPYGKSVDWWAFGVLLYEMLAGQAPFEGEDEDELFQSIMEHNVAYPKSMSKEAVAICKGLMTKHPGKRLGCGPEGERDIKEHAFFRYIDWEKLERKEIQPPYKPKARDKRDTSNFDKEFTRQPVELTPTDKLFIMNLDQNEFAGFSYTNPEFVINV
NUAK family SNF1-like kinase 2 (Homo sapiens), sequence (Q9H093 whole entry): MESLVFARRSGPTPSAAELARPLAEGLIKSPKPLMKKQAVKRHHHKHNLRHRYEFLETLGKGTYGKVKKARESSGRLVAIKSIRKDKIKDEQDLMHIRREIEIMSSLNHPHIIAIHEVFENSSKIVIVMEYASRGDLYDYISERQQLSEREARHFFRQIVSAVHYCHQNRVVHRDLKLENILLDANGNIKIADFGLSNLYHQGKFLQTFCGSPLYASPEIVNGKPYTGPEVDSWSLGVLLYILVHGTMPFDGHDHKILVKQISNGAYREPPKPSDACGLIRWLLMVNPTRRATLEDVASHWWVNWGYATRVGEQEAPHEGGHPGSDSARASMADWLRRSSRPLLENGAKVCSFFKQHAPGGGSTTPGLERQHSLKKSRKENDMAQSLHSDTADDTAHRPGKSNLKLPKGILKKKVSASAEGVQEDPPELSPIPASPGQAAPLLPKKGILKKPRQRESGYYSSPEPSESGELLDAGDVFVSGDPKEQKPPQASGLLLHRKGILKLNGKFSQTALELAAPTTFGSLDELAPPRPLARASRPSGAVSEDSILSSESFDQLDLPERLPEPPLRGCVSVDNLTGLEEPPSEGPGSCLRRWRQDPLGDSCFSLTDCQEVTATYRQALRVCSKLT
Inhibitor of nuclear factor kappa-B kinase subunit beta (Homo sapiens), sequence (O14920 whole entry): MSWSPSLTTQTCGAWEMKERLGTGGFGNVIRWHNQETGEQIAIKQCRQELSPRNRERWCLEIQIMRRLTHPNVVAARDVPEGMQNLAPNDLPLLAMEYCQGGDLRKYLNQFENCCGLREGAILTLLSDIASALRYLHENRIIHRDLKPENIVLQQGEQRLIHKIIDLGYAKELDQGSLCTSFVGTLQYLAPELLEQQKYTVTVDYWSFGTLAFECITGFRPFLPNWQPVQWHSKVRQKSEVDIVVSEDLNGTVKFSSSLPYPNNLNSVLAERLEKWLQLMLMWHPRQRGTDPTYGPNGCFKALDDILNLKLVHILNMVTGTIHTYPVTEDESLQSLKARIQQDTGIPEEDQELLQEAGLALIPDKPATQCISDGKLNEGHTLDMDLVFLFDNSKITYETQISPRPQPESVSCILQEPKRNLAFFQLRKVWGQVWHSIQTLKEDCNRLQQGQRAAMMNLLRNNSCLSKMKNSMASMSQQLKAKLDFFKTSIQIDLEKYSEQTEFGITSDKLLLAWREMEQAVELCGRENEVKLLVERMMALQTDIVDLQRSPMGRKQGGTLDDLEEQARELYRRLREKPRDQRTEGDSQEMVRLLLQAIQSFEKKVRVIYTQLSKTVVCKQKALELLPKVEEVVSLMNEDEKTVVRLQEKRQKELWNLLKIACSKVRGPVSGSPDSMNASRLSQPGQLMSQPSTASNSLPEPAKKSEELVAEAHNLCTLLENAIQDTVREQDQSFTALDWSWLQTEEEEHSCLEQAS
Tyrosine-protein kinase receptor UFO (Homo sapiens), sequence (P30530 whole entry): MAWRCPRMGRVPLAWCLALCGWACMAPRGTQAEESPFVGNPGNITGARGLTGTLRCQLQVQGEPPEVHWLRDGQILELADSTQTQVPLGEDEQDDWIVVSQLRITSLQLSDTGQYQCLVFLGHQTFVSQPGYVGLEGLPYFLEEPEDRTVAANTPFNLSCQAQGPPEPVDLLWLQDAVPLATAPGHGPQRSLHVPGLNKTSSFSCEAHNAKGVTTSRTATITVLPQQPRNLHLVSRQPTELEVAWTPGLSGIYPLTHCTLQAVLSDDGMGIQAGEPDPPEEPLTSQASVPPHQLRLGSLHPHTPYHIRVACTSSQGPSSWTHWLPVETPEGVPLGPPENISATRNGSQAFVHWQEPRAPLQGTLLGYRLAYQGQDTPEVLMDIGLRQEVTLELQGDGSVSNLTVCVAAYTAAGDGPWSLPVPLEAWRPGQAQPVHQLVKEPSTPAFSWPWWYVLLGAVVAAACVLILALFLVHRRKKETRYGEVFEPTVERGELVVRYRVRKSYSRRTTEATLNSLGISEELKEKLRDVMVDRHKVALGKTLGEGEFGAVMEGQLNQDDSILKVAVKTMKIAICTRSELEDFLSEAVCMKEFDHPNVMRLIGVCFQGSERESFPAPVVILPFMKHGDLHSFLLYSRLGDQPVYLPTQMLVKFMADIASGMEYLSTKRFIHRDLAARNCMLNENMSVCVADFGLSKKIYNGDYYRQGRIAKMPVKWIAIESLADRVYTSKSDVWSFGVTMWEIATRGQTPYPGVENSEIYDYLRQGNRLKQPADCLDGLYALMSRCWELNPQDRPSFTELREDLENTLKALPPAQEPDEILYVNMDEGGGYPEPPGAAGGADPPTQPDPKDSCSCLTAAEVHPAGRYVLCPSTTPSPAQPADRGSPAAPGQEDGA
Calcium/calmodulin-dependent protein kinase type IV (Homo sapiens), sequence (Q16566 whole entry, the tested form may be a part): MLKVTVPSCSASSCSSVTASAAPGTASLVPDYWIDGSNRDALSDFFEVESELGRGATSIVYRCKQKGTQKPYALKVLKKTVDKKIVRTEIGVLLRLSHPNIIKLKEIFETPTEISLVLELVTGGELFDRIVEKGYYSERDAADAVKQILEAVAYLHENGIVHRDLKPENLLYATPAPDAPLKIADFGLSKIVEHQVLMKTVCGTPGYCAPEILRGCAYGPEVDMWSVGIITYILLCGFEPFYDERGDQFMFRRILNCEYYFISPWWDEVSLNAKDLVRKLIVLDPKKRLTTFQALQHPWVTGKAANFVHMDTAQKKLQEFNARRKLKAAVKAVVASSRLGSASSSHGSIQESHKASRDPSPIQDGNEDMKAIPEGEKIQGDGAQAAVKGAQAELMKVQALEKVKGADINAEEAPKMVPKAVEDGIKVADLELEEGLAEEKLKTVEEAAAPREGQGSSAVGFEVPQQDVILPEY
MAPK/MAK/MRK overlapping kinase (Homo sapiens), sequence (Q9UQ07 whole entry, the tested form may be a part): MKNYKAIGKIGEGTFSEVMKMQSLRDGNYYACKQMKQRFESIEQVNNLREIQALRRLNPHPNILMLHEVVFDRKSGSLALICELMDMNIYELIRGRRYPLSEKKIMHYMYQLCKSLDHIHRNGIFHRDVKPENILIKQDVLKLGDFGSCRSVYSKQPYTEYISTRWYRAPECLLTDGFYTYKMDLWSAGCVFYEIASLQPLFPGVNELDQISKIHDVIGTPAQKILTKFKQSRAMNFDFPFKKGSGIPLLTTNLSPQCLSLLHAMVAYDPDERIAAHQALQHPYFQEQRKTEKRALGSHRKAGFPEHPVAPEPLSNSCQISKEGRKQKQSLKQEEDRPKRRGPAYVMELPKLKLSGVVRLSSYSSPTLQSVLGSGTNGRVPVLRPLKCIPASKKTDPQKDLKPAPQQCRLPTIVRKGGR

Structure (SMILES): CS(=O)(=O)c1ccc(-n2nc(-c3cnc4[nH]ccc4c3)c3c(N)ncnc32)cc1
- inhibition [1]: 42%
- inhibition [2]: 6%
- inhibition [3]: -4%
- inhibition [4]: 9%
- CL (Mus musculus): 22.2 mL/min/kg
- inhibition [5]: 8%
- inhibition [6]: 4%
- inhibition [7]: -3%
- inhibition [8]: 96%
- inhibition [9]: 47%
- inhibition [10]: -7%
- inhibition [11]: 18%
- inhibition [12]: 6%
- inhibition [13]: 1%
- inhibition [14]: 66%
- inhibition [15]: 59%
- inhibition [16]: 92%
- inhibition [17]: 4%
- inhibition [18]: 85%
- inhibition [19]: 3%
- inhibition [20]: 14%
- inhibition [21]: 18%
- inhibition [22]: 31%
- inhibition [23]: -2%
